Converted amounts (≈) assume the structure as drawn.
Columns and labels:
[1] = tested on: HepG2 cell line; test: MTT assay, HepG2 cell line; assay type: cell-based, human; details: for Cytotoxicity at 5 µg/l: HepG2, 5 µg/l; for Cytotoxicity at 5 µg/l / Cytotoxicity at 10 µg/l / Cytotoxicity at 20 µg/l: MTT, 24 hr treatment, in % (unit assumed); for Cytotoxicity at 10 µg/l: HepG2, 10 µg/l; for Cytotoxicity at 20 µg/l: HepG2, 20 µg/l
Description: (§1) Determination of the inhibitory effects of compounds on cell growth was performed through the MTT assay. This colorimetric assay is based on the conversion of the yellow tetrazolium bromide (MTT) to a purple formazan derivative by mitochondrial succinate dehydrogenase in viable cells. The protocol was discussed in details in Additional file 1.
(§2) Compounds 1, 4a,b, 7a–c, 7k, l, 9a–c, 14a, 15b, 16a–c were selected to be investigated against three human cancer cell lines MCF7, HepG2 and HCT116 cell lines using MTT assay using doxorubicin as the standard drug. Each point is the mean ± SD (standard deviation) of three independent experiments performed in triplicate, using the prism software program (integrated Graphpad software, version 3).
(§3) Cell lines were used to measure the cell growth effects of the compounds using the MTT assay. This colorimetric assay is depend on the conversion of the yellow tetrazolium bromide (MTT) to a purple formazan derivative by mitochondrial succinate dehydrogenase in living cells. Cell lines were cultured in RPMI-1640 medium supplemented with 10% fetal bovine serum. The antibiotics added were 100 units/ml penicillin and 100 µg/ml streptomycin at 37 °C in a 5% CO2 incubator. Cell lines were seeded in a 96-well plates at a density of 1.0x10^4 cells/well and cultured at 37 °C for 48 h under 5% CO2. After incubation, the cells were treated with different concentrations of compounds and incubated for 24 hr. After 24 hr of drug treatment, 20 µl of MTT solution at 5 mg/ml was added to each well and incubated for 4 hr. 100 µl of dimethyl sulfoxide (DMSO) was added into each well to dissolve the purple formazan formed. The colorimetric assay was measured and recorded at absorbance of 570 nm using a plate reader (EXL 800, USA). Relative cell viability (%) was calculated as (A570 of treated sample/A570 of untreated sample) x 100 [36, 37].

[2] = tested on: MCF7 cell line; test: MTT assay, MCF7 cell line; assay type: cell-based, human; details: 24 hr treatment, in % (unit assumed); for Cytotoxicity at 5 µg/l: MCF7, 5 µg/l; for Cytotoxicity at 10 µg/l: MCF7, 10 µg/l; for Cytotoxicity at 20 µg/l: MCF7, 20 µg/l
Description: as §1, §2, §3

[3] = tested on: HCT-116 cell line; test: MTT assay, HCT-116 cell line; assay type: cell-based, human; details: for Cytotoxicity at 5 µg/l: HCT116, 5 µg/l; for Cytotoxicity at 5 µg/l / Cytotoxicity at 10 µg/l / Cytotoxicity at 20 µg/l: MTT, 24 hr treatment, in % (unit assumed); for Cytotoxicity at 10 µg/l: HCT116, 10 µg/l; for Cytotoxicity at 20 µg/l: HCT116, 20 µg/l
Description: as §1, §2, §3

Row | Compound | melting point | also measured
1 | O=C1NC(=O)c2c(nn3c(-c4ccccc4)cc(-c4ccccc4)nc23)C1=Cc1ccncc1 [Compound 7t, 2,4-Diphenyl-7-(pyridin-4-ylmethylene)pyrido[4ʹ,3ʹ:3,4]pyrazolo[1,5-a]pyrimidine-8,10(7H,9H)-dione] | 340 °C | 
2 | Cc1cc(C)n2nc3c(c2n1)C(=O)NC(=O)C3=Cc1ccccc1O [Compound 7d, 7-(2-Hydroxybenzylidene)-2,4-dimethylpyrido[4ʹ,3ʹ:3,4]pyrazolo[1,5-a]pyrimidine-8,10(7H,9H)-dione] | > 360 °C | 
3 | O=C1NC(=O)c2c(nn3c(-c4ccccc4)cc(-c4ccccc4)nc23)C1=Cc1ccccc1O [Compound 7n, 7-(2-Hydroxybenzylidene)-2,4-diphenylpyrido[4ʹ,3ʹ:3,4]pyrazolo[1,5-a]pyrimidine-8,10(7H,9H)-dione] | 275 °C | 
4 | COc1cc(C=C2C(=O)NC(=O)c3c2nn2c(-c4ccccc4)cc(-c4ccccc4)nc32)cc(OC)c1OC [Compound 7p, 2,4-Diphenyl-7-(3,4,5-trimethoxybenzylidene)pyrido[4ʹ,3ʹ:3,4]pyrazolo[1,5-a]-pyrimidine-8,10(7H,9H)-dione] | 315 °C | 
5 | Cc1cc(C)n2nc3c(c2n1)C(=O)NC(=O)C3=Cc1ccc2c(c1)OCO2 [Compound 7g, 7-(Benzo[d][1,3]dioxol-5-ylmethylene)-2,4-dimethylpyrido[4ʹ,3ʹ:3,4]pyrazolo[1,5-a]-pyrimidine-8,10(7H,9H)-dione] | 300 °C | 
6 | Nc1n[nH]c2c1C(=O)NC(=O)C2 [Compound 1, 3-amino-1,7-dihydro-4H-pyrazolo[4,3-c]pyridine-4,6(5H)-dione] |  | Cytotoxicity at 5 µg/l [1]: 43.17; Cytotoxicity at 10 µg/l [1]: 53.18; Cytotoxicity at 20 µg/l [1]: 65.34; Cytotoxicity at 5 µg/l [2]: 31.71; Cytotoxicity at 10 µg/l [2]: 61.39; Cytotoxicity at 20 µg/l [2]: 73.65; Cytotoxicity at 5 µg/l [3]: 16.23; Cytotoxicity at 10 µg/l [3]: 52.09; Cytotoxicity at 20 µg/l [3]: 71.08
7 | Cc1cc(C)n2nc3c(c2n1)C(=O)NC(=O)C3=NNc1ccc(Cl)cc1 [Compound 9d, 7-(2-(4-Chlorophenyl)hydrazono)-2,4-dimethylpyrido[4ʹ,3ʹ:3,4]pyrazolo[1,5-a]pyrimidine-8,10(7H,9H)-dione] | 300 °C | 
8 | COc1ccc(OC)c(C=C2C(=O)NC(=O)c3c2nn2c(-c4ccccc4)cc(-c4ccccc4)nc32)c1 [Compound 7o, 7-(2,5-Dimethoxybenzylidene)-2,4-diphenylpyrido[4ʹ,3ʹ:3,4]pyrazolo[1,5-a]pyrimidine-8,10(7H,9H)-dione] | 275 °C | 
9 | COc1cccc2c1C(=O)c1c(O)c3c(c(O)c1C2=O)C[C@@](O)(C(=O)CO)C[C@@H]3O[C@H]1C[C@H](N)[C@H](O)[C@H](C)O1 [Doxo, Doxorubicin, reference compound] |  | Cytotoxicity at 5 µg/l [1]: 53.46; Cytotoxicity at 10 µg/l [1]: 68.59; Cytotoxicity at 20 µg/l [1]: 91.13; IC50 ([1]; Homo sapiens, HepG2, MTT, read-out: IC50 (drug concentration that inhibited 50% of cell proliferation)): 4.75 ng/mL (≈ 8.74 nM); Cytotoxicity at 5 µg/l [2]: 75.43; Cytotoxicity at 10 µg/l [2]: 89.14; Cytotoxicity at 20 µg/l [2]: 98.19; Cytotoxicity at 5 µg/l [3]: 62.14; Cytotoxicity at 10 µg/l [3]: 77.18; Cytotoxicity at 20 µg/l [3]: 95.26; IC50 ([3]; Homo sapiens, HCT-116, HCT116, MTT, read-out: IC50 (drug concentration that inhibited 50% of cell proliferation)): 3.64 ng/mL (≈ 6.7 nM)
10 | O=C1NC(=O)c2c(nn3c(-c4ccccc4)cc(-c4ccccc4)nc23)C1=Cc1ccc2c(c1)OCO2 [Compound 7q, 7-(Benzo[d][1,3]dioxol-5-ylmethylene)-2,4-diphenylpyrido[4ʹ,3ʹ:3,4]pyrazolo[1,5-a]-pyrimidine-8,10(7H,9H)-dione] | 335 °C | 
11 | O=C1NC(=O)c2c(nn3c(-c4ccccc4)cc(-c4ccccc4)nc23)C1=Cc1ccco1 [Compound 7r, 7-(Furan-2-ylmethylene)-2,4-diphenylpyrido[4ʹ,3ʹ:3,4]pyrazolo[1,5-a]pyrimidine-8,10(7H,9H)-dione] | 335 °C | 
12 | Cc1cc(C)n2nc3c(c2n1)C(=O)NC(=O)C3=Cc1ccncc1 [Compound 7j, 2,4-Dimethyl-7-(pyridin-4-ylmethylene)pyrido[4ʹ,3ʹ:3,4]pyrazolo[1,5-a]pyrimidine-8,10(7H,9H)-dione] | 270 °C | 
13 | COc1cc(C=C2C(=O)NC(=O)c3c2nn2c(C)cc(C)nc32)cc(OC)c1OC [Compound 7f, 2,4-Dimethyl-7-(3,4,5-trimethoxybenzylidene)pyrido[4ʹ,3ʹ:3,4]pyrazolo[1,5-a]pyrimidine-8,10(7H,9H)-dione] | 240 °C | 

Further lines, with some results ahead:

Row | melting point | Compound | also measured
14 | 330 °C | Cc1cc(O)n2nc3c(c2n1)C(=O)NC(=O)C3=Cc1ccc(Cl)cc1 [Compound 15c, 7-(4-Chlorobenzylidene)-4-hydroxy-2-methylpyrido[4ʹ,3ʹ:3,4]pyrazolo[1,5-a]pyrimidine-8,10(7H,9H)-dione] | 
15 | 330 °C | O=C1NC(=O)c2c(nn3c(O)cc(-c4ccccc4)nc23)C1=NNc1ccc(Cl)cc1 [Compound 16h, 7-(2-(4-Chlorophenyl)hydrazono)-4-hydroxy-2-phenylpyrido[4ʹ,3ʹ:3,4]pyrazolo[1,5-a]pyrimidine-8,10(7H,9H)-dione] | 
16 | 310 °C | O=C1Cc2nn3c(O)cc(-c4ccccc4)nc3c2C(=O)N1 [Compound 14b, 4-Hydroxy-2-phenylpyrido[4ʹ,3ʹ:3,4]pyrazolo[1,5-a]pyrimidine-8,10(7H,9H)-dione] | 
17 | 300 °C | COc1ccc(C=C2C(=O)NC(=O)c3c2nn2c(O)cc(-c4ccccc4)nc32)cc1 [Compound 15e, 4-Hydroxy-7-(4-methoxybenzylidene)-2-phenylpyrido[4ʹ,3ʹ:3,4]pyrazolo[1,5-a]pyrimidine-8,10(7H,9H)-dione] | 
18 | 335 °C | O=C1NC(=O)c2c(nn3c(-c4ccccc4)cc(-c4ccccc4)nc23)C1=NNc1ccc(Cl)cc1 [Compound 11d, 7-(2-(4-Chlorophenyl)hydrazono)-2,4-diphenylpyrido[4ʹ,3ʹ:3,4]pyrazolo[1,5-a]pyrimidine-8,10(7H,9H)-dione] | 
19 | 315 °C | O=C1NC(=O)c2c(nn3c(-c4ccccc4)cc(-c4ccccc4)nc23)C1=NNc1ccccc1 [Compound 11a, 2,4-Diphenyl-7-(2-phenylhydrazono)pyrido[4ʹ,3ʹ:3,4]pyrazolo[1,5-a]pyrimidine-8,10(7H,9H)-dione] | 
20 | 330 °C | O=C1NC(=O)c2c(nn3c(O)cc(-c4ccccc4)nc23)C1=Cc1ccc(Cl)cc1 [Compound 15f, 7-(4-Chlorobenzylidene)-4-hydroxy-2-phenylpyrido[4ʹ,3ʹ:3,4]pyrazolo[1,5-a]pyrimidine-8,10(7H,9H)-dione] | 
21 | 310 °C | Cc1cc(O)n2nc3c(c2n1)C(=O)NC(=O)C3=NNc1ccc(Cl)cc1 [Compound 16d, 7-(2-(4-Chlorophenyl)hydrazono)-4-hydroxy-2-methylpyrido[4ʹ,3ʹ:3,4]pyrazolo[1,5-a]pyrimidine-8,10(7H,9H)-dione] | 
22 | 323 °C | COc1ccc(NN=C2C(=O)NC(=O)c3c2nn2c(O)cc(-c4ccccc4)nc32)cc1 [Compound 16g, 4-Hydroxy-7-(2-(4-methoxyphenyl)hydrazono)-2-phenylpyrido[4ʹ,3ʹ:3,4]pyrazolo[1,5-a]pyrimidine-8,10(7H,9H)-dione] | 
23 | 305 °C | Cc1cc(O)n2nc3c(c2n1)C(=O)NC(=O)C3=Cc1ccccc1 [Compound 15a, 7-Benzylidene-4-hydroxy-2-methylpyrido[4ʹ,3ʹ:3,4]pyrazolo[1,5-a]pyrimidine-8,10(7H,9H)-dione] | 
24 | 300 °C | O=C1NC(=O)c2c(nn3c(O)cc(-c4ccccc4)nc23)C1=NNc1ccccc1 [Compound 16e, 4-Hydroxy-2-phenyl-7-(2-phenylhydrazono)pyrido[4ʹ,3ʹ:3,4]pyrazolo[1,5-a]pyrimidine-8,10(7H,9H)-dione] | 
25 | 320 °C | Cc1ccc(NN=C2C(=O)NC(=O)c3c2nn2c(O)cc(-c4ccccc4)nc32)cc1 [Compound 16f, 4-Hydroxy-2-phenyl-7-(2-(p-tolyl)hydrazono)pyrido[4ʹ,3ʹ:3,4]pyrazolo[1,5-a]pyrimidine-8,10(7H,9H)-dione] | 
26 | 320 °C | Cc1ccc(NN=C2C(=O)NC(=O)c3c2nn2c(-c4ccccc4)cc(-c4ccccc4)nc32)cc1 [Compound 11b, 2,4-Diphenyl-7-(2-(p-tolyl)hydrazono)pyrido[4ʹ,3ʹ:3,4]pyrazolo[1,5-a]pyrimidine-8,10(7H,9H)-dione] | 
